Experimental findings from patent US20160168540A1, “COMPOSITION FOR MAINTAINING PLATELET FUNCTION” (KYOTO UNIVERSITY, priority 2013, published 2016) are described below.

In the test the target is T1, TACE (ADAM17) (Homo sapiens, UniProt P78536).
T1 construct: made in house; host or cells: mammalian cells or insect cells
Briefly: TACE (ADAM17) inhibition test. In kind it is biochemical. The following applies: fluorescent synthetic substrate, 37° C. for 1.5 hours; read-out: TACE IC50. The source says:
The nucleotide sequence of TACE has been reported by Moss et al. (Moss, M. L. et al., Nature 1997, vol. 385, pp. 733-736). Based on this information, the cDNA of TACE was obtained according to the prescribed method from THP-1 cells or the like, and then incorporated the cDNA into an expression vector. Next, this vector was transformed into mammalian cells or insect cells, and TACE protein was expressed. The TACE protein was isolated, and used as an enzyme. Further, a fluorescent synthetic substrate Nma(N-methylanthranilic acid)-Leu-Ala-Gln-Ala-Val-Arg-Ser-Ser-Lys(Dnp(dinitrophenyl))-D-Arg-NH2 including the TACE-cleaved sequence of a membrane-bound TNF was used as a substrate. The enzyme reaction was carried out by adding 1.8 μL of a solution of the test substance to 90 μL of a fluorescent synthetic substrate prepared with an assay buffer B (50 mM tris-hydrochloric acid buffer (pH 7.5) including 200 mM sodium chloride, 5 mM calcium chloride, 10 μM zinc sulfate, and 0.05% PLURONIC F-68), then mixing 90 μL of a TACE enzyme solution prepared with an assay buffer A (50 mM tris-hydrochloric acid buffer (pH 7.5) including 200 mM sodium chloride, 5 mM calcium chloride, 10 μM zinc sulfate, and 2 mg/mL bovine serum albumin) and reacting at 37° C. for 1.5 hours. Enzyme activity was then determined by measuring with a fluorescence intensity meter (Labsystems, Fluoroskan Ascent) at an excitation wavelength of 355 nm and a measurement wavelength of 460 nm. The 50% inhibitory concentration (IC50) of the test substances was calculated by comparing enzyme activity in the presence and the absence of the test substance to determine the inhibition rate. Further, test substances having an IC50 strength of less than 100 nM were evaluated as “A”, and test substances having an IC50 strength of 100 nM or more were evaluated as “B”.

T1 sequence (P78536 215-824): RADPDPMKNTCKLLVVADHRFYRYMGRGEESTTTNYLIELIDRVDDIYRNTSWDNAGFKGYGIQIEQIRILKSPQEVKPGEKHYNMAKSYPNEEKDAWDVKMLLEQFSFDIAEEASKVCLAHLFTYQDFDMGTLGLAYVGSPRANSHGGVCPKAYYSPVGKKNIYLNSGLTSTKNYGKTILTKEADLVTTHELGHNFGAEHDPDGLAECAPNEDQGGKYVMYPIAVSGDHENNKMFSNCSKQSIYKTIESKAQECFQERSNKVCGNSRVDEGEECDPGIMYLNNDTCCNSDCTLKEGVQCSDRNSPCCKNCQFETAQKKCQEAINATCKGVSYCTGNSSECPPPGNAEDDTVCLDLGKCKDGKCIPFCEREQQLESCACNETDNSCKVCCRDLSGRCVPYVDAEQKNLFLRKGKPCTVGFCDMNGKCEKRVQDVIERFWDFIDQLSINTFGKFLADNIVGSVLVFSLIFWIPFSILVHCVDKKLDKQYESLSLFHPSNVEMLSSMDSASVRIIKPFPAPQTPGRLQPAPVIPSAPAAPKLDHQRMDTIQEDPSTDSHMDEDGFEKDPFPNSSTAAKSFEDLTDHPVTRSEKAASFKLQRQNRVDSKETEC

As a reminder, the IC50 is the concentration that inhibits the measured activity by half. `Cc1cccn(CC2(c3ccc(Cc4ccccc4)cc3)NC(=O)NC2=O)c1=O` (racemic) [Compound I-40, 5-(4-benzylphenyl)-5-[(3-methyl-2-oxopyridin-1(2H)-yl)methyl]imidazolidine-2,4-dione]: the half-inhibitory concentration (IC50) is under 100 nM. As for `Cc1cccn(CC2(c3ccc(OC(F)F)cc3)NC(=O)NC2=O)c1=O` (racemic) [Compound I-78], the IC50 is under 100 nM.

With `O=C1NC(=O)C(Cn2ccccc2=O)(c2cc(F)c(F)c(F)c2)N1` (racemic) [Compound I-157], the IC50 was under 100 nM. Consider `Cc1cccn(CC2(c3ccc(F)c(Cl)c3)NC(=O)NC2=O)c1=O` (racemic) [Compound I-126], for which the IC50 was under 100 nM. For `C=C(C)c1ccc(C2(Cn3cccc(C)c3=O)NC(=O)NC2=O)cc1` (racemic) [Compound I-108] the value was under 100 nM. `Cc1ccc(Oc2ccc(C3(Cn4cccc(C)c4=O)NC(=O)NC3=O)cc2)cc1` (racemic) [Compound I-34, 5-[(3-methyl-2-oxopyridin-1(2H)-yl)methyl]-5-[4-(p-tolyloxy)phenyl]imidazolidine-2,4-dione]: the IC50 is under 100 nM. Consider `Cc1cccn(CC2(c3ccc(OC4CCCCC4)cc3)NC(=O)NC2=O)c1=O` (racemic) [Compound I-37, 5-[4-(cyclohexyloxy)phenyl]-5-[(3-methyl-2-oxopyridin-1(2H)-yl)methyl]imidazolidine-2,4-dione], for which the IC50 was under 100 nM. The result for `COc1cc(C2(Cn3cccc(C)c3=O)NC(=O)NC2=O)ccc1F` (racemic) [Compound I-12, 5-(4-fluoro-3-methoxyphenyl)-5-[(3-methyl-2-oxopyridin-1(2H)-yl)methyl]imidazolidine-2,4-dione] reads under 100 nM; that for `COc1ccc(C2(Cn3cccc(C(F)(F)F)c3=O)NC(=O)NC2=O)cc1` (racemic) [Compound I-141], under 100 nM. Regarding `O=C1NC(=O)C(Cn2cccc(Br)c2=O)(c2ccccc2)N1` (racemic) [Compound I-139], the IC50 was under 100 nM. In the case of `O=C1NC(=O)C(Cn2cccc(Cl)c2=O)(c2ccc(Cc3ccccc3)cc2)N1` (racemic) [Compound I-150], the IC50 is under 100 nM. For `Cc1cccn(CC2(c3ccc4c(c3)CCCC4)NC(=O)NC2=O)c1=O` (racemic) [Compound I-77] the value was under 100 nM; for `Cc1cccn(CC2(c3cccc(OC(F)(F)F)c3)NC(=O)NC2=O)c1=O` (racemic) [Compound I-67], under 100 nM. In the case of `Cc1cccn(CC2(c3ccc(OC4C=CCCC4)cc3)NC(=O)NC2=O)c1=O` (racemic) [Compound I-36, 5-[4-(cyclohex-2-en-1-yloxy)phenyl]-5-[(3-methyl-2-oxopyridin-1(2H)-yl)methyl]imidazolidine-2,4-dione], the IC50 is under 100 nM. For `Cc1cccn(CC2(c3ccc(Oc4cc(F)cc(F)c4)cc3)NC(=O)NC2=O)c1=O` (racemic) [Compound I-99] the value was under 100 nM. For `Cc1cccn(CC2(c3ccc(C#N)cc3)NC(=O)NC2=O)c1=O` (racemic) [Compound I-3, 4-{4-[(3-methyl-2-oxopyridin-1(2H)-yl)methyl]-2,5-dioxoimidazolidine-4-yl}benzonitrile] the value was under 100 nM; for `Cc1cccn(CC2(c3cccnc3)NC(=O)NC2=O)c1=O` (racemic) [Compound I-8, 5-[(3-methyl-2-oxopyridin-1(2H)-yl)methyl]-5-(pyridin-3-yl)imidazolidine-2,4-dione], under 100 nM; for `Cc1cccn(CC2(c3ccc(Oc4ccccc4F)c(F)c3)NC(=O)NC2=O)c1=O` (racemic) [Compound I-104], under 100 nM. In the case of `Cc1cc(C2(Cn3cccc(C)c3=O)NC(=O)NC2=O)ccc1OC1C=CCCC1` (stereo not drawn) [Compound I-38], the IC50 was under 100 nM. Consider `COc1ccncc1-c1ccc(C2(Cn3cccc(C)c3=O)NC(=O)NC2=O)cc1` (racemic) [Compound I-91], for which the IC50 was under 100 nM. Consider `O=C1NC(=O)C(Cn2cccc(F)c2=O)(c2ccc(Cc3ccccc3)cc2)N1` (racemic) [Compound I-152], for which the IC50 is at least 100 nM. As for `COc1ccccc1Oc1ccc(C2(Cn3cccc(C)c3=O)NC(=O)NC2=O)cc1` (racemic) [Compound I-113], the IC50 was under 100 nM. The result for `Cc1cccn(CC2(c3ccc(Oc4cccnc4)cc3)NC(=O)NC2=O)c1=O` (racemic) [Compound I-101] reads under 100 nM; that for `O=C1NC(=O)C(Cn2cccc(CO)c2=O)(c2ccc(F)c(F)c2)N1` (racemic) [Compound I-148], at least 100 nM. Regarding `COc1ccc(-c2ccc(C3(Cn4cccc(C)c4=O)NC(=O)NC3=O)cc2)cc1` (racemic) [Compound I-72], the IC50 is under 100 nM.

Consider `Cc1cccn(CC2(c3ccc(C(C)(C)C)cc3)NC(=O)NC2=O)c1=O` (racemic) [Compound I-17, 5-[4-(tert-butyl)phenyl]-5-[(3-methyl-2-oxopyridin-1(2H)-yl)methyl]imidazolidine-2,4-dione], for which the IC50 is under 100 nM. Regarding `Cc1cccn(CC2(c3ccc(S(C)(=O)=O)cc3)NC(=O)NC2=O)c1=O` (racemic) [Compound I-25, 5-[(3-methyl-2-oxopyridin-1(2H)-yl)methyl]-5-[4-(methylsulfonyl)phenyl]imidazolidine-2,4-dione], the IC50 is under 100 nM. Take `O=C1NC(=O)C(Cn2cccc(F)c2=O)(c2ccc(F)cc2)N1` (racemic) [Compound I-48, 5-[(3-fluoro-2-oxopyridin-1(2H)-yl)methyl]-5-(4-fluorophenyl)-imidazolidine-2,4-dione]: the IC50 is under 100 nM.

As for `O=C1NC(=O)C(Cn2cccc(Br)c2=O)(c2ccc(F)c(F)c2)N1` (racemic) [Compound I-147], the IC50 was under 100 nM.

`Cc1cccn(CC2(c3ccsc3)NC(=O)NC2=O)c1=O` (racemic) [Compound I-5, 5-[(3-methyl-2-oxopyridin-1(2H)-yl)methyl]-5-(thiophen-3-yl)imidazolidine-2,4-dione]: the IC50 was under 100 nM. In the case of `COc1ccc(C2(Cn3cccc(C)c3=O)NC(=O)NC2=O)cc1OC` (racemic) [Compound I-16, 5-(3,4-dimethoxyphenyl)-5-[(3-methyl-2-oxopyridin-1(2H)-yl)methyl]imidazolidine-2,4-dione], the IC50 was under 100 nM. Take `N#Cc1ccc(C2(Cn3cccc(C(F)(F)F)c3=O)NC(=O)NC2=O)cc1` (racemic) [Compound I-142]: the IC50 was under 100 nM. With `Cc1noc(C)c1-c1ccc(C2(Cn3cccc(C)c3=O)NC(=O)NC2=O)cc1` (racemic) [Compound I-90], the IC50 was under 100 nM.

As for `Cc1cccn(CC2(c3ccc(Cc4ccc(F)cc4)cc3)NC(=O)NC2=O)c1=O` (racemic) [Compound I-41, 5-[4-(4-fluorobenzyl)phenyl]-5-[(3-methyl-2-oxopyridin-1(2H)-yl)methyl]imidazolidine-2,4-dione], the IC50 was under 100 nM.

For the compound `O=C1NC(=O)C(Cn2ccccc2=O)(c2ccc(Cc3ccccc3)cc2)N1` (racemic) [Compound I-156], the IC50 is at least 100 nM. Regarding `Cc1cccn(CC2(c3ccc(CC(C)C)cc3)NC(=O)NC2=O)c1=O` (racemic) [Compound I-121], the IC50 was under 100 nM.

Take `Cc1cccn(CC2(c3ccc(C(F)(F)F)cc3)NC(=O)NC2=O)c1=O` (racemic) [Compound I-89]: the IC50 was under 100 nM.

`Cc1cccn(CC2(c3ccc(F)cc3F)NC(=O)NC2=O)c1=O` (racemic) [Compound I-61]: the IC50 was at least 100 nM. As to `O=C1NC(=O)C(Cn2cccc(Cl)c2=O)(c2ccccc2)N1` (racemic) [Compound I-50, 5-[(3-chloro-2-oxopyridin-1(2H)-yl)methyl]-5-phenylimidazolidine-2,4-dione], the IC50 was under 100 nM. For the compound `CCc1cccn(CC2(c3ccc(OC)cc3)NC(=O)NC2=O)c1=O` (racemic) [Compound I-53, 5-[(3-ethyl-2-oxopyridin-1(2H)-yl)methyl]-5-(4-methoxyphenyl)imidazolidine-2,4-dione], the IC50 is at least 100 nM.

In the case of `Cc1cccn(CC2(c3ccc(Cl)c(Cl)c3)NC(=O)NC2=O)c1=O` (racemic) [Compound I-125], the IC50 is under 100 nM. The result for `Cc1cccn(CC2(c3ccc(-c4ccncc4)cc3)NC(=O)NC2=O)c1=O` (racemic) [Compound I-31, 5-[(3-methyl-2-oxopyridin-1(2H)-yl)methyl]-5-[4-(pyridin-4-yl)phenyl]imidazolidine-2,4-dione] reads under 100 nM; that for `Cc1cccc(Oc2ccc(C3(Cn4cccc(C)c4=O)NC(=O)NC3=O)cc2)c1` (racemic) [Compound I-80], under 100 nM; that for `Cc1cccn(CC2(c3cccc(OCc4ccccc4)c3)NC(=O)NC2=O)c1=O` (racemic) [Compound I-58], under 100 nM. The result for `N#Cc1ccc(C2(Cn3cccc(F)c3=O)NC(=O)NC2=O)cc1` (racemic) [Compound I-134] reads under 100 nM.
